Key:
[1] = system: mature IL-1β release from human monocytes; assay: Release of mature IL-1β from human monocytes (pulse chase assay); assay type: cell-based; conditions: inhibition of release of mature IL-1β; human monocytes activated with fixed S. aureus; 2-3 donors; read-out: in vivo IC50
Method: Compounds of the present invention were tested for their ability to block mature IL-1β release from cells (monocytes) as described in the following protocol:
Protocol for Monitoring Release of Mature IL-1β-From Human Monocytes
Human monocytes were isolated from heparinized leukopheresis units obtained through Biological Specialty Corporation (Lansdale, Pa.). Monocytes were purified by Ficoll-Hupaque (Pharmacia Fine Chemicals, Piscataway, N.J.) gradient centrifugation and more than 95% pure monocyte populations obtained by centrifugal elutriation. The assay was performed on duplicate samples of freshly isolated human monocytes, cultured in suspension at 37° C. and rotated gently in conical bottom polypropylene tubes (Sardstedt Inc., Princeton, N.J.). Human monocytes at a concentration of 5×10^6 cells/mL were resuspended in 1 mL of RPMI 1640 (a common tissue buffer from M.A. Bioproducts, Walkersyille, Md.) containing 1% fetal calf serum (FCS) (HyClone, Logan, Utah) and 50 μg/mL gentamycin (Gibco, Grand Island, N.Y.). The cells were treated either with a compound of the invention (i.e. test compound) or with a non-inhibitor (control compound, typically 0.03% DMSO) for 15 minutes and then activated with 0.01% fixed Staphylococcus aureus (The Enzyme Center, Malden, Mass.) for 1 hour. The cells were then centrifuged and resuspended in 1 mL of cysteine, methionine-free RPMI media containing 1% dialyzed FCS (Hyclone). The cells were pretreated with a test compound or control compound for 15 minutes after which 0.01% fixed S. aureus plus 100 μCi Tran 35-S label (ICN, Irvine, Calif.) was added and the cells incubated at 37° C. for 1 hour. After incubation, cells were centrifuged, washed once in phosphate buffer saline and resuspended in 1 ML RPMI containing 1% fetal calf serum The cells were again pretreated with a test or control compound for 15 minutes and then 0.01% S. aureus for 2 hours. At the end of the incubation, cells were centrifuged and supernates saved for immunoprecipitation. Cells were washed once in phosphate buffer saline and then lysed in RIPA, a continuous cell media buffer containing 2 mM phenylmethylsulfonyl fluoride, 10 mM iodoacetate, 1 μg/mL pepstatin A, 1 μg/mL leupeptin and 0.5 TIU aprotinin.
For the immunoprecipitations, an equal volume of 1% dry milk in RIPA buffer plus 50 μL of resuspended protein A sepharose CL-4B (Pharmacia, Piscataway, N.Y.) was added to supernates and 1 mL of 4% dry milk containing protein A sepharose CL-4B to cell lysates and samples rotated for 30 minutes at 4° C. Beads were then centrifuged down, samples transferred to fresh tubes and incubated overnight with 40 μg rabbit antihuman IL1B polyclonal antibody (Genzyme, Cambridge, Mass.). The IL-1β proteins were then precipitated with 70 μL protein A sepharose, resuspended in 60 μL SDS sample buffer and run on 15% […] gels. Autoradiography was performed on dried gels and the amount of radioactivity (counts per minute, cpm) quantitated using a Betascope 603 analyzer.
In the monocyte pulse chase assay, each test parameter was run in duplicate. Data was collected from the Beta Scope using a personal computer, then transferred to the VAX system for calculation of mean cpm and standard deviation of the mean. When test compounds were evaluated, the percent inhibition of release of mature IL1β was calculated as follows:
100×[1−(cells treated with stimuli+test compound−unstimulated cells)/(cells teed with stimuli+control compound−unstimulated cells)]
These % inhibition values were then used to calculate IC50 value for each compound. Since the human monocyte pulse chase assay uses primary cells from different donors, each test compound was run in 2-3 separate experiments, using monocytes from 2-3 different donors.

[2] = biological target: T1, IL-1β protease (Homo sapiens, UniProt P29466); assay: IL-1β protease inhibition activity (HPLC assay, substrate TRITC-AYVHDAPVRS-NH2); assay type: biochemical; conditions: partially purified IL-1β protease; 15 min preincubation with inhibitor at 37° C., 60 min reaction
T1 construct: Partially purified IL-1β protease is stored at −80° C
T1 sequence (P29466 120-297 limits assumed): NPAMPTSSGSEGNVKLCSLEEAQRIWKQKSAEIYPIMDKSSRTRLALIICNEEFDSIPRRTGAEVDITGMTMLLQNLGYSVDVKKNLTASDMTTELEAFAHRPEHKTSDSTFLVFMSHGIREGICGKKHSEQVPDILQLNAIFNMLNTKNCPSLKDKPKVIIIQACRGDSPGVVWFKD
T1 sequence (P29466 317-404 limits assumed): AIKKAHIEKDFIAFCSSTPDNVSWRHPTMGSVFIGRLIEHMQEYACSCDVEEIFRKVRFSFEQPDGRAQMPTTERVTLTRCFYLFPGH
Method: Compounds of the present invention were tested for IL-1β protease inhibition activity according to the following protocol:
Partially purified IL-1β protease is stored at −80° C., thawed on ice, and preincubated for 10 minutes at 37° C. with 2.5 mM dithiothreitol in a buffer solution containing 10 mM Tris-HCl (pH 8.0) and 25% (v/w) glycerol. Inhibitors are prepared as stock solutions in dimethyl sulfoxide (DMSO). The protease is preincubated with inhibitor in a volume of […] in a 1.5 ml polypropylene microcentrifuge tube for 15 minutes at 37° C. The volume of compound added to the assay is adjusted to yield a DMSO concentration in the preincubation of <15% (v/v). The enzyme assay is then initiated by the addition of substrate (TRITC-AYVHDAPVRS-NH2) to yield a final concentration of […] in a final volume of […]. The reaction are carried out for 60 minutes at 37° C. in the dark and are terminated by the addition of […] of 10% trifluoroacetic acid (TFA). Following the addition of […] of 0.1% TFA, the samples are analyzed by high pressure liquid chromatography using a reverse phase (C18) column and elution with an acetonitrile/water/FA gradient. Substrate and product are monitored by their absorbance at 550 nm and elute at 4.2 and 5.2 minutes, respectively.

| Molecule | IC50 [1] [nM] | IC50 [2] [nM] | melting point [°C] |
| --- | --- | --- | --- |
| O=C(O)C[C@H](NC(=O)OCc1ccccc1)C(=O)COC(=O)c1c(Cl)cccc1Cl [Example 38, N-benzyloxycarbonyl-L-aspartic acid 2,6-dichlorobenzoyloxymethyl ketone] | 10000 | 50 | – |
| O=C(O)C[C@H](NC(=O)OCc1ccccc1)C(=O)COC(=O)c1c(C(F)(F)F)cccc1C(F)(F)F [Example 40, N-Benzyloxycarbonyl-L-aspartic acid 2,6-ditrifluoromethyl benzoyloxymethyl ketone] | – | 100 | – |
| O=C(O)C[C@H](NC(=O)OCc1ccccc1)C(=O)COc1c(Cl)cccc1Cl [Example 41, N-Benzyloxycarbonyl-L-aspartic acid 2,6 dichlorophenoxymethyl ketone] | – | 100 | – |
| O=C(O)C[C@H](NC(=O)OCc1ccccc1)C(=O)COc1ccc(S(=O)(=O)N2CCOCC2)cc1F [Example 42, N-Benzyloxycarbonyl-L-aspartic acid 2-fluoro-4-(N-morpholinylsulfonamido)phenoxymethyl ketone] | – | 320 | 65 to 66 |
| COc1cccc(OC)c1C(=O)OCC(=O)[C@H](CC(=O)O)NC(=O)OCc1ccccc1 [Example 45, N-Benzyloxycarbonyl-L-aspartic acid 2,6-dimethoxybenzoyloxy methyl ketone] | ~100000 | – | – |
| O=C(O)C[C@H](NC(=O)OCc1ccccc1)C(=O)COC(=O)c1c(F)cccc1F [Example 48, N-Benzyloxycarbonyl-L-aspartic acid 2,6-difluorobenzoyloxymethyl ketone] | ~100000 | – | – |
| CCCCNS(=O)(=O)c1ccc(Cl)c(C(=O)OCC(=O)[C@H](CC(=O)O)NC(=O)OCc2ccccc2)c1Cl [Example 49, N-Benzyloxycarbonyl-L-aspartic acid 3-(N-butylsulfonamido)-2,6-dichlorobenzoyloxymethyl ketone] | – | 90 | 48 to 50 |
| NC(=O)CNS(=O)(=O)c1ccc(Cl)c(C(=O)OCC(=O)[C@H](CC(=O)O)NC(=O)OCc2ccccc2)c1Cl [Example 52, N-Benzyloxycarbonyl-L-aspartic acid 3-(N-[2-aminoacetamidoyl]sulfonamido)-2,6-dichlorobenzoyloxymethyl ketone] | – | 60 | 54 to 56 |
| O=C(O)C[C@H](NC(=O)OCc1ccccc1)C(=O)COC(=O)c1c(Cl)ccc(S(=O)(=O)N2CCOCC2)c1Cl [Example 53, N-Benzyloxycarbonyl-L-aspartic acid 2,6-dichloro-3-(N-morpholinylsulfonamido)benzoyloxymethyl ketone] | – | 90 | – |
| COC(=O)N[C@@H](C)C(=O)N[C@@H](CC(=O)O)C(=O)COC(=O)c1c(Cl)cccc1Cl [Example 54, N-Methoxycarbonyl-L-alanine-L-aspartic acid 2,6-dichlorobenzoyloxymethyl ketone] | – | 60 | – |
| COC(=O)N[C@@H](Cc1ccccc1)C(=O)N[C@@H](CC(=O)O)C(=O)COC(=O)c1c(Cl)cccc1Cl [Example 57, N-Methoxycarbonyl-L-phenylalanine-L-aspartic acid 2,6-dichlorobenzoyloxymethyl ketone] | – | 70 | – |
| CC(C)[C@H](NC(=O)OCc1ccccc1)C(=O)N[C@@H](CC(=O)O)C(=O)COC(=O)c1c(Cl)cccc1Cl [Example 61, N-Benzyloxycarbonyl-L-valine-L-aspartic acid 2,6-dichlorobenzoyloxy-methyl ketone] | 900 | – | – |
| CC(C)[C@H](NC(=O)OCc1ccccc1)C(=O)N[C@@H](C)C(=O)N[C@@H](CC(=O)O)C(=O)COC(=O)c1c(Cl)cccc1Cl [Example 63, N-Benzyloxycarbonyl-L-valine-L-alanine-L-aspartic acid 2,6-di-chlorobenzoyloxymethyl ketone] | 500 | – | – |
| O=C(O)C[C@H](NC(=O)c1ccco1)C(=O)COC(=O)c1c(Cl)cccc1Cl [Example 64, N-(2-Furonyl)carbonyl-L-aspartic acid 2,6-dichlorobenzoyloxymethyl ketone] | – | 140 | – |
| O=C(O)C[C@H](NC(=O)c1ccco1)C(=O)COC(=O)c1c(Cl)ccc(S(=O)(=O)N2CCOCC2)c1Cl [Example 65, N-(2-Furonyl)carbonyl-L-aspartic acid 2,6-dichloro-3-(N-morpholinylsulfonamido)benzoyloxymethyl ketone] | 30000 | – | – |
| CN(C)Cc1ccc(C(=O)N[C@@H](CC(=O)O)C(=O)COC(=O)c2c(Cl)cccc2Cl)cc1 [Example 68, N-(4-N,N-dimethylaminomethyl)benzoyl-L-aspartic acid 2,6-dichlorobenzoyloxymethyl ketone] | – | 300 | 55 to 57 |
| O=C(O)C[C@@H](NC(=O)OCc1ccccc1)C(=O)COC(=O)c1c(Cl)cccc1Cl [Example 69, N-Benzyloxycarbonyl-D-aspartic acid 2,6-dichlorobenzoyloxymethyl ketone] | 10000 | – | – |
| O=C(O)C[C@H](NC(=O)COC(=O)c1c(Cl)cccc1Cl)C(=O)COC(=O)c1c(Cl)cccc1Cl [Example 70] | – | 200 | – |
| CCN(CC)S(=O)(=O)c1c(F)c(F)c(OCC(=O)[C@H](CC(=O)O)NC(=O)[C@@H](NC(=O)OCc2ccccc2)C(C)C)c(F)c1F [Example 71, N-Benzyloxycarbonyl-L-valine-L-aspartic acid 4-(N,N-diethyl-sulfonamido)-2,3,5,6-tetrafluorophenoxymethyl ketone] | 5000 | – | – |
| N-Methoxycarbonyl-L-aspartic acid 2,6-dichlorobenzoyloxymethyl ketone [Example 67] | – | 80 | – |
| N-Methoxycarbonyl-L-valine-L-aspartic acid 2,6-dichlorobenzoyloxy-methyl ketone [Example 59] | 10000 | – | – |
